# From ChEMBL document CHEMBL1141953, “Synthesis and structure-activity relationships of novel benzene sulfonamides with potent binding affinity for bovine carbonic anhydrase II” (Bioorg Med Chem Lett, 2005)
# Molecular target: Carbonic anhydrase 2 (Bos taurus, UniProt P00921)
# Assay: Displacement of DNSA from CAII in bovine erythrocytes
# Sequence of Carbonic anhydrase 2 (P00921 whole entry): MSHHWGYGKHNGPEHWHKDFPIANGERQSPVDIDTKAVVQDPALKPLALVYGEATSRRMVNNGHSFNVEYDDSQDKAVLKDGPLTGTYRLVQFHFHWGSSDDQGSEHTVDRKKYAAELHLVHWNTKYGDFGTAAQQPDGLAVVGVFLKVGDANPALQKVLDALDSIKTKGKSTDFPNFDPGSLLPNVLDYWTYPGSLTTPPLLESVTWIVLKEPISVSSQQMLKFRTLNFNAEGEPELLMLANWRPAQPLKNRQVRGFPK
row,SMILES,Ki
1,NS(=O)(=O)c1ccc(C(=O)OC/C=C/COC(=O)c2ccccc2)cc1,4.7 nM
2,C=CCCCOC(=O)c1ccc(S(N)(=O)=O)cc1,7.7 nM
3,C=CCOC(=O)c1ccc(S(N)(=O)=O)cc1,8.6 nM
4,NS(=O)(=O)c1ccc(C(=O)OC/C=C/COC(=O)c2ccc(S(N)(=O)=O)cc2)cc1,4.9 nM
5,NS(=O)(=O)c1ccc(C(=O)OC/C=C/CO)cc1,5.3 nM

# Further lines, results first:
row,Ki,SMILES
1,9.3 nM,NS(=O)(=O)c1ccc(C(=O)OC/C=C\COC(=O)c2ccc(S(N)(=O)=O)cc2)cc1
2,9.1 nM,NS(=O)(=O)c1ccc(C(=O)OC/C=C\CO)cc1
